Patent US9365522B2, “Pyrazole amide derivative” (AMGEN INC., priority 2015, dated 2016)

Biological target: T1, ligand binding domain of human ROR gamma (Homo sapiens, UniProt P51449)
T1 construct: NM_001001523; expressed in transfected cells; host or cells: HEK293T
T1 sequence (P51449 247-497 isoform P51449-2): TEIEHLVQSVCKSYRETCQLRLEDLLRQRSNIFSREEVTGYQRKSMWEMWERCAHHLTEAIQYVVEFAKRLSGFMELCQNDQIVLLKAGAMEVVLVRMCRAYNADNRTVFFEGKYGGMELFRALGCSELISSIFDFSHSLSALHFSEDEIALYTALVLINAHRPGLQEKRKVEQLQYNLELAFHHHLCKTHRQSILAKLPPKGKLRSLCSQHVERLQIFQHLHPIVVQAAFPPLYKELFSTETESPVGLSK
Assay: ROR gamma reporter gene assay (GAL4-RORγ LBD luciferase, Dual-Glo)
Assay type: cell-based
Conditions: HEK293T cells transfected with pM-ROR gamma, 8 concentrations 3.5 nM to 10.5 μM, 24 h incubation; for IC50: read-out: result (pIC50, inhibition of RORγ transcriptional activity) (converted)
Method in brief: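 Transient GAL4-RORγ LBD (aa 247-497) / 5×UAS-luc / pRL-CMV cotransfection in HEK293T, charcoal-stripped 10% FBS. 8-pt dose, 3.5 nM–10.5 μM, 0.075% DMSO final. 24 h, 37 °C, 5% CO2. Dual-Glo firefly/renilla readout; pIC50 from curve fit.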

| Molecule | IC50 [pM] | result (pIC50, inhibition of RORγ transcriptional activity) |
| --- | --- | --- |
| O=C(CN(Cc1cccc(O)c1)C(=O)c1cnn([C@H]2CC[C@H](C(=O)O)CC2)c1C(F)(F)F)c1c(Cl)cncc1Cl [Example 153, trans-4-(4-((2-(3,5-dichloropyridin-4-yl)-2-oxoethyl)-((3-hydroxyphenyl)methyl)carbamoyl)-5-(trifluoromethyl)pyrazol-1-yl)cyclohexane-1-carboxylic acid] | 209000 | – |
| CC1(C)CCC(N(CC(=O)c2c(Cl)cc(F)cc2Cl)C(=O)c2cnn([C@H]3CC[C@](C)(C(=O)O)CC3)c2C(F)(F)F)CC1 [Example 190, trans-4-(4-((2-(2,6-dichloro-4-fluorophenyl)-2-oxoethyl)-(4,4-dimethylcyclohexyl)carbamoyl)-5-(trifluoromethyl)pyrazol-1-yl)-1-methylcyclohexane-1-carboxylic acid] | 8320 | – |
| O=C(c1cnn([C@H]2CC[C@H](C(=O)O)CC2)c1C(F)(F)F)N(Cc1ccc(F)cc1)CC(O)c1c(Cl)cncc1Cl (stereo partly drawn) [Example 90, trans-4-(4-((2-(3,5-dichloropyridin-4-yl)-2-hydroxyethyl)(4-fluorobenzyl)carbamoyl)-5-(trifluoromethyl)-1H-pyrazol-1-yl)cyclohexanecarboxylic acid] | 501000 | – |
| O=C(CN(Cc1cc(F)cc(F)c1)C(=O)c1cnn([C@H]2CC[C@H](C(=O)O)CC2)c1C(F)(F)F)c1c(Cl)cc(C(F)(F)F)cc1Cl [Example 57, trans-4-(4-((2-(2,6-dichloro-4-(trifluoromethyl)phenyl)-2-oxoethyl)(3,5-difluorobenzyl)carbamoyl)-5-(trifluoromethyl)-1H-pyrazol-1-yl)cyclohexanecarboxylic acid] | 38000 | – |
| O=C(CN(C[C@H]1CCOC1)C(=O)c1cnn([C@H]2CC[C@H](C(=O)O)CC2)c1C(F)(F)F)c1c(Cl)cncc1Cl [Example 39, trans-4-(4-((2-(3,5-dichloropyridin-4-yl)-2-oxoethyl)(((R)-tetrahydrofuran-3-yl)methyl)carbamoyl)-5-(trifluoromethyl)-1H-pyrazol-1-yl)cyclohexanecarboxylic acid] | > 1e+07 | – |
| O=C(CN(Cc1cc(F)cc(F)c1)C(=O)c1cnn([C@H]2CC[C@H](C(=O)O)CC2)c1C(F)(F)F)c1ccc(F)cc1Cl [Example 61, trans-4-(4-((2-(2-chloro-4-fluorophenyl)-2-oxoethyl)(3,5-difluorobenzyl)carbamoyl)-5-(trifluoromethyl)-1H-pyrazol-1-yl)cyclohexanecarboxylic acid] | 200000 | – |
| CC(C)(C)CCN(CC(=O)c1c(Cl)cncc1Cl)C(=O)c1cnn([C@H]2CC[C@H](C(=O)O)CC2)c1C(F)(F)F [Example 33, trans-4-(4-((2-(3,5-dichloropyridin-4-yl)-2-oxoethyl)(3,3-dimethylbutyl)carbamoyl)-5-(trifluorornethyl)-1H-pyrazol-1-yl)cyclohexanecarboxylic acid] | 112000 | – |
| Cc1cc(=O)[nH]c(C)c1C(=O)CN(Cc1cc(F)cc(F)c1)C(=O)c1cnn([C@H]2CC[C@H](C(=O)O)CC2)c1C(F)(F)F [Example 122, trans-4-(4-((3,5-difluorophenyl)methyl-(2-(2,4-dimethyl-6-oxo-1H-pyridin-3-yl)-2-oxoethyl)carbamoyl)-5-(trifluoromethyl)pyrazol-1-yl)cyclohexane-1-carboxylic acid] | > 1e+07 | – |
| N#Cc1cc(Cl)c(C(=O)CN(Cc2cc(F)cc(F)c2)C(=O)c2cnn([C@H]3CC[C@H](C(=O)O)CC3)c2C(F)(F)F)c(Cl)c1 [Example 58, trans-4-(4-((2-(2,6-dichloro-4-cyanophenyl)-2-oxoethyl)(3,5-difluorobenzyl)carbamoyl)-5-(trifluorornethyl)-1H-pyrazol-1-yl)cyclohexanecarboxylic acid] | 135000 | – |
| cis-3-(4-((2-(3,5-dichloropyridin-4-yl)-2- oxoethyl)(4-fluorobenzyl)carbamoyl)-5- (trifluoromethyl)-1H-pyrazol-1-yl)-1- fluorocyclohexanecarboxylic acid [Example 83] | – | 5.78 |
| O=C(CN(Cc1cc(F)cc(F)c1)C(=O)c1cnn([C@H]2CC[C@H](C(=O)O)CC2)c1C(F)(F)F)C1CCCCC1 [Example 65, trans-4-(4-((2-cyclohexyl-2-oxoethyl)(3,5-difluorobenzyl)carbamoyl)-5-(trifluoromethyl)-1H-pyrazol-1-yl)cyclohexanecarboxylic acid] | > 1e+07 | – |
| CC(C)(C)CC1CC(N(CC(=O)c2c(Cl)cc(F)cc2Cl)C(=O)c2cnn([C@H]3CC[C@](C)(C(=O)O)CC3)c2C(F)(F)F)C1 (stereo partly drawn) [Example 203, trans-4-(4-((2-(2,6-dichloro-4-fluorophenyl)-2-oxoethyl)-(3-(2,2-dimethylpropyl)cyclobutyl)carbamoyl)-5-(trifluoromethyl)pyrazol-1-yl)-1-methylcyclohexane-1-carboxylic acid] | 912000 | – |
| CC1(C)CC[C@H](CN(CC(=O)c2c(Cl)cncc2Cl)C(=O)c2cnn([C@H]3CC[C@H](C(=O)O)CC3)c2C(F)(F)F)O1 [Example 16, trans-4-(4-((2-(3,5-dichloropyridin-4-yl)-2-oxoethyl)(((R)-5,5-dimethylTHF-2-yl)methyl)carbamoyl)-5-(trifluoromethyl)-1H-pyrazol-1-yl)cyclohexanecarboxylic acid] | 117000 | – |

Continued, in another order:

| IC50 [pM] | Molecule | result (pIC50, inhibition of RORγ transcriptional activity) |
| --- | --- | --- |
| 6030 | CC1(C)CC(CN(CC(=O)c2c(Cl)cc(Cl)cc2Cl)C(=O)c2cnn(C34CCC(C(=O)O)(CC3)CC4)c2C(F)(F)F)C1 [Example 256, 4-(4-((3,3-dimethylcyclobutyl)methyl-(2-oxo-2-(2,4,6-trichlorophenyl)ethyl)carbamoyl)-5-(trifluoromethyl)pyrazol-1-yl)bicyclo[2.2.2]octane-1-carboxylic acid] | – |
| 107000 | COc1cccc(Cl)c1[C@H](O)CN(C(=O)c1cnn([C@H]2CC[C@](C)(C(=O)O)CC2)c1Cl)[C@H]1C[C@@H]2[C@H](C1)C2(C)C [Example 375, trans-4-(5-chloro-4-((2-(2-chloro-6-methoxyphenyl)-2-hydroxyethyl)((1R,3r,5S)-6,6-dimethylbicydo[3.1.0]hexan-3-yl)carbamoyl)-1H-pyrazol-1-yl)-1-methylcyclohexanecarboxylic acid] | – |
| 12300 | CC1(C)[C@@H]2C[C@H](N(CC(=O)c3c(F)cncc3Cl)C(=O)c3cnn(C45CCC(C(=O)O)(CC4)CC5)c3C(F)(F)F)C[C@@H]21 [Example 335, 4-(4-((2-(3-chloro-5-fluoropyridin-4-yl)-2-oxoethyl)((1R,3r,5S)-6,6-dimethylbicyclo[3.1.0]hexan-3-yl)carbamoyl)-5-(trifluoromethyl)-1H-pyrazol-1-yl)bicyclo(2.2.2)octane-1-carboxylic acid] | – |
| 8130 | CC1(C)C(CN(CC(=O)c2c(Cl)cncc2Cl)C(=O)c2cnn(C34CCC(C(=O)O)(CC3)CC4)c2C(F)(F)F)C1(C)C [Example 322, 4-(4-((2-(3,5-dichloropyridin-4-yl)-2-oxoethyl)-((2,2,3,3-tetramethylcyclopropyl)methyl)carbamoyl)-5-(trifluoromethyl)pyrazol-1-yl)bicyclo[2.2.2]octane-1-carboxylic acid] | – |
| 1.15e+06 | CC(C)(C)S(=O)(=O)CCN(CC(=O)c1c(Cl)cc(F)cc1Cl)C(=O)c1cnn([C@H]2CC[C@](C)(C(=O)O)CC2)c1C(F)(F)F [Example 350, trans-4-(4-(2-tert-butylsulfonylethyl-(2-(2,6-dichloro-4-fluorophenyl)-2-oxoethyl)carbamoyl)-5-(trifluoromethyl)pyrazol-1-yl)-1-methylcyclohexane-1-carboxylic acid] | – |
| 191000 | CC1(C)CCC(N(CC(=O)c2c(Cl)cc(F)cc2Cl)C(=O)c2cnn([C@H]3C[C@H](C(=O)O)C3)c2C(F)(F)F)CC1 [Example 290, trans-3-(4-((2-(2,6-dichloro-4-fluorophenyl)-2-oxoethyl)-(4,4-dimethylcyclohexyl)carbamoyl)-5-(trifluoromethyl)pyrazol-1-yl)cyclobutane-1-carboxylic acid] | – |
| 9120 | CCC(C)(C)CN(CC(=O)c1c(Cl)cncc1Cl)C(=O)c1cnn([C@H]2CC[C@](C)(C(=O)O)CC2)c1C(F)(F)F [Example 286, trans-4-(4-((2-(3,5-dichioropyridin-4-yl)-2-oxoethyl)-(2,2-dimethylbutyl)carbamoyl)-5-(trifluoromethyl)pyrazol-1-yl)-1-methylcyclohexane-1-carboxylic acid] | – |
| > 1.05e+07 | CN1C(C)(C)CC(N(CC(=O)c2c(Cl)cncc2Cl)C(=O)c2cnn([C@H]3CC[C@](C)(C(=O)O)CC3)c2C(F)(F)F)CC1(C)C [Example 311, trans-4-(4-((2-(3,5-dichloropyridin-4-yl)-2-oxoethyl)-(1,2,2,6,6-pentamethylpiperidin-4-yl)carbamoyl)-5-(trifluoromethyl)pyrazol-1-yl)-1-methylcyclohexane-1-carboxylic acid] | – |
| 45700 | COc1cccc(Cl)c1[C@H](O)CN(C(=O)c1cnn([C@H]2CC[C@](C)(C(=O)O)CC2)c1C(F)(F)F)[C@H]1C[C@@H]2[C@H](C1)C2(C)C [Example 342, trans-4-(4-((2-(2-chloro-6-methoxyphenyl)-2-hydroxyethyl)((1R,3r,5S)-6,6-dimethylbicyclo[3.1.0]hexan-3-yl)carbamoyl)-5-(trifluoromethyl)-1H-pyrazol-1-yl)-1-methylcyclohexanecarboxylic acid] | – |
